According to patent US9919002B2, “Methods and constructs for compound delivery” (North Carolina State University, priority 2013, dated 2018):

Key:
[1] = tested on: MDA-MB-231 tumor xenograft; experiment: In vivo antitumor efficacy of Gelipo formulations; conditions: i.v. 2 mg/kg Dox every other day for 12 days
Method: All animals were treated in accordance with the Guide for Care and Use of Laboratory Animals, approved by local committee. The female nude mice were subcutaneously inoculated in the back with MDA-MB-231 cells (1×10^7 cells/mouse) for the construction of the tumor xenograft model. The tumor size was monitored by a fine caliper and the tumor volume (V) was calculated as V=L×W^2/2, where L and W were the length and width of the tumor, respectively.
When the tumor volume reached to 50 mm^3, the mice were weighed, randomly divided into 4 groups, and intravenously administrated with the Dox solution (2 mg/kg), Dox-Gelipo (2 mg/kg), Dox/TRAIL-Gelipo (2 mg/kg Dox, 0.04 mg/kg TRAIL) and saline every other day for 12 days. The tumor size and body weight of the mice were measured at the meantime. At Day 14, the tumor were harvested from the mice after euthanasia, washed by saline thrice and then fixed in 10% neutral buffered formalin (NBF). For HE staining, formalin-fixed tumors were embedded in paraffin blocks and visualized by optical microscope (DM5500B, Leica). For TUNEL apoptosis staining, the fixed tumor sections were stained by the In Situ Cell Death Detection Kit (Roche Applied Science) according to the manufacturer's protocol. Hoechst 33342 was used for nuclear nuclear counterstaining. The stained tumor slides were observed by fluorescence microscope (IX71, Olympus).

HAase = experiment: In vitro HAase-mediated TRAIL release and CD spectra; assay type: physicochemical; conditions: TRAIL released from Gelipo versus native TRAIL
Method: 500 μL of rhodamine-labeled TRAIL-loaded Gelipo (r-TRAIL-Gelipo) was incubated with 500 μL of HAase (1 mg/mL) at pH 6.5 in a 37° C. water bath. At prearranged time intervals, free r-TRAIL in the filtrate was harvested using centrifugal filters (30K MWCO) (Millipore). The fluorescence intensity of r-TRAIL was determined at 585 nm with an excitation wavelength of 552 nm by a microplate reader (Infinite M200 PRO, Tecan). Additionally, the far-UV CD spectra of the native TRAIL and the released TRAIL from TRAIL Gelipo were obtained using a Circular Dichroism Spectrometer (Aviv).

MDA-MB-231 cells = experiment: Cell apoptosis assay (Annexin V-FITC, TUNEL), Example 2; assay type: cell-based, human; conditions: 12 h
Method: Apoptosis of MDA-MB-231 cells was detected using the Annexin V-FITC Apoptosis Detection Kit (BD Biosciences) and APO-BrdU TUNEL Assay Kit (Life Technologies), respectively. The cells (1×10^5 cells/well) were seeded in 6-well plates and cultured for 48 h. For Annexin V-FITC assay, the cells were incubated with different formulations for 12 h, including free TRAIL (2 or 20 ng/mL), TRAIL-Gelipo (20 ng/mL) with or without HAase-treatment, Dox-R8H3-L (100 ng/mL), TRAIL/Dox-Gelipo (2 ng/mL TRAIL, 100 ng/mL Dox) with HAase-treatment. For TUNEL assay, the cells were incubated with free TRAIL (2 ng/mL), Dox-R8H3-L (100 ng/mL) and TRAIL/Dox-Gelipo (2 ng/mL TRAIL, 100 ng/mL Dox) with HAase-treatment for 20 h, respectively. The following procedures were performed in accordance with the manufacturers' protocols. Finally, for Annexin V-FITC assay, the cells were analyzed by flow cytometry (BD FACSCalibur), while for TUNEL assay, the cells were observed by fluorescence microscope (IX71, Olympus).

[2] = 20 ng/mL TRAIL, Annexin V-FITC/PI

Compound | Tumor growth compared with saline [1] | Secondary structure of released TRAIL (CD spectrum) (HAase) | Apoptosis ratio (MDA-MB-231 cells; 2 ng/mL TRAIL) [%] | Apoptosis ratio (MDA-MB-231 cells; [2]) [%] | Viability (MDA-MB-231 cells; [2]) [%]
COc1cccc2c1C(=O)c1c(O)c3c(c(O)c1C2=O)C[C@@](O)(C(=O)CO)C[C@@H]3O[C@H]1C[C@H](N)[C@H](O)[C@H](C)O1 [Dox solution, doxorubicin] | remarkably suppressed | – | – | – | –
free TRAIL: His-ILZ-TRAIL (residues 114-281) produced in E. coli; TNF-related apoptosis-inducing ligand | – | no noticeable conformational changes in the secondary structure | 36.48 | 51.71 | 32.30
